Where two headings read alike, the source gives them in different places.

For this test, the target named is T1, Recombinant human renin (Homo sapiens, UniProt P00797).
T1 sequence (P00797 67-406): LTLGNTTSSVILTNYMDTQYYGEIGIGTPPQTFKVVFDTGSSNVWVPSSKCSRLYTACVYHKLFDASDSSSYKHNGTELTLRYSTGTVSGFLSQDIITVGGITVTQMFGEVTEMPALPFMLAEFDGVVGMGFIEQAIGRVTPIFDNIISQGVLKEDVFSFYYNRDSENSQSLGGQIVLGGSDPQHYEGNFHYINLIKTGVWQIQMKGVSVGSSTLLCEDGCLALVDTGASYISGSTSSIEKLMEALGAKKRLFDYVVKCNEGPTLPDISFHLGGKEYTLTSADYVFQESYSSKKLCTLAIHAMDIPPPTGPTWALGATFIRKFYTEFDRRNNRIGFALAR
The test can be described thus: Inhibitory activity against human renin (fluorogenic peptide substrate). It is filed as biochemical. The conditions noted are these: 37° C. for 1 hour. On the procedure:
Inhibitory Activity Against Human Renin
A substrate of synthetic peptide (Nma-KHPFH LVIHK(Dnp)-NH2) and test compound were mixed, and fluorescence intensity was assayed using a fluorophotometer before starting an enzymatic reaction (exciting wavelength: 340 nm, measuring wavelength: 460 nm). Recombinant human renin was added and the mixture was incubated at 37° C. for 1 hour, and the fluorescence intensity was measured after the reaction using a fluorophotometer (exciting wavelength: 340 nm, measuring wavelength: 460 nm).

[1] abbreviates: 50% inhibitory concentration (IC50) against human renin.

For orientation: IC50 means the concentration that gives 50% inhibition. In the case of `COC(=O)NCCCc1cc([C@@H](C)N(C(=O)[C@H]2CNCCO2)C2CC2)cc2ncccc12` [Example 149], the concentration for half-maximal inhibition (IC50) under setting [1] turned out to be 800 pM. For the compound `COC[C@@H]1CNC[C@H](C(=O)N(C2CC2)[C@H](C)c2cc(OC)nc(CCCNC(=O)OC)n2)O1` [Example 386], the half-inhibitory concentration (IC50) under setting [1] is 3200 pM. On the same count and under the same terms, with `COC(=O)NCCCn1nc([C@@H](C)N(C(=O)[C@H]2CNCCO2)C2CC2)cc1C(C)(C)c1ccccc1` [Example 387] the figure was 4400 pM; with `COC(=O)NCCCn1nc([C@@H](C)N(C(=O)[C@H]2CNCCO2)C2CC2)c(C)c1-c1ccccn1` [Example 220], 400 pM. Take `COC(=O)NCCCc1cc([C@@H](C)N(C(=O)[C@H]2CNC[C@@H](C)O2)C2CC2)cc(OC)n1` [Example 238]: the IC50 under setting [1] is 600 pM. Consider `COC(=O)NCCCc1cc(C(C)N(C(=O)[C@H]2CNCCO2)C2CC2)sc1C(C)C` (some centres unmarked) [Example 418], for which the half-maximal inhibitory concentration (IC50) under setting [1] was found to be 3900 pM. `COCCCCn1cc([C@@H](C)N(C(=O)[C@H]2CNCCO2)C2CC2)c2nc(C)ccc21` [Example 56]: where the note is “read-out: IC50”, the half-maximal inhibitory concentration (IC50) stood at 4200 pM. In the case of `COC(=O)NCCCn1nc([C@@H](C)N(C(=O)[C@H]2CN[C@@H](CCF)CO2)C2CC2)c2ccc(C)nc21` [Example 332], the IC50 under setting [1] was 400 pM. Same read-out and setting: with `COC[C@H]1CO[C@@H](C(=O)N(C2CC2)[C@H](C)c2cc(CCCNC(=O)OC)n(C(C)C)n2)CN1` [Example 300] the figure was 2800 pM; with `COC(=O)NCCCc1cc([C@@H](C)N(C(=O)[C@H]2CNCCO2)C2CC2)sc1-c1ccccc1CNS(=O)(=O)C(F)(F)F` [Example 284], 1300 pM. Same read-out and setting: then `COCCOc1cc([C@@H](C)N(C(=O)[C@H]2CNC[C@@H](C)O2)C2CC2)cc(CCCNC(=O)OC)n1` [Example 366], with 700 pM; and `COC(=O)NCCCn1nc([C@@H](C)N(C(=O)[C@H]2CNCCO2)C2CC2)cc1-c1cccc(C)n1` [Example 176], with 400 pM.

Take `COC(=O)NCCCn1cc([C@@H](C)N(C(=O)[C@H]2CNCCO2)C2CC2)c2cc(F)cnc21` [Example 75]: the half-maximal inhibitory concentration (IC50) (read-out: IC50) is 300 pM. As for `COC(=O)NCCCc1cc([C@@H](C)N(C(=O)[C@H]2CNCCO2)C2CC2)sc1-c1ccccc1C(=O)OC` [Example 268], the half-inhibitory concentration (IC50) under setting [1] turned out to be 500 pM. In the case of `COC(=O)NCCCc1cc([C@@H](C)N(C(=O)[C@H]2CNCCO2)C2CC2)sc1-c1cccc(-c2nnn[nH]2)c1` [Example 263], under setting [1], the IC50 amounted to 200 pM.

With `COC(=O)NCCCn1nc([C@@H](C)N(C(=O)[C@H]2CNCCO2)C2CC2)cc1-c1ccc(F)cc1` [Example 158], under setting [1], the 50% inhibitory concentration (IC50) turned out to be 300 pM. For `COC[C@@H]1CNC[C@H](C(=O)N(C2CC2)[C@@H](C)c2nn(CCCNC(=O)OC)c(C3CCOCC3)c2F)O1` [Example 330], the IC50 under setting [1] was 300 pM.

Regarding `COC(=O)NCCCn1cc([C@@H](C)N(C(=O)[C@H]2CNCCO2)C2CC2)nc1-c1ccc(C)cc1` [Example 163], under setting [1], the IC50 was 400 pM. Consider `COC(=O)NCCCn1cc([C@@H](C)N(C(=O)[C@H]2CNCCO2)C2CC2)nc1C1CCCCC1` [Example 6, methyl (3-{2-cyclohexyl-4-[(1R)-1-{cyclopropyl[(2R)-morpholin-2-ylcarbonyl]amino}ethyl]-1H-imidazol-1-yl}propyl)carbamate], for which the 50% inhibitory concentration (IC50) (read-out: IC50) worked out at 300 pM. `COC(=O)NCCCn1nc([C@@H](C)N(C(=O)[C@H]2CNC[C@@H](C(C)(C)O)O2)C2CC2)c2ccc(C)nc21` [Example 293]: the IC50 under setting [1] is 7700 pM. On to `COC[C@H]1CO[C@@H](C(=O)N(C2CC2)[C@@H](C)c2nn(CCCNC(=O)OC)c(-c3ccccn3)c2C)CN1` [Example 338], for which the IC50 under setting [1] is 5300 pM. Same read-out and setting: then `COC(=O)NCCCn1cc([C@@H](C)N(C(=O)[C@H]2CNCCO2)C2CC2)nc1-c1cccc(Cl)c1` [Example 175], with 300 pM; and `COCCOc1cc([C@H](C)N(C(=O)[C@H]2CNC[C@@H](COC)O2)C2CC2)cc(CCCNC(=O)OC)n1` [Example 384], with 3200 pM. For the compound `COC[C@@H]1CNC[C@H](C(=O)N(C2CC2)[C@H](C)c2cn(CCCNC(=O)OC)c(-c3ccc(F)cc3)n2)O1` [Example 277], under setting [1], the concentration for half-maximal inhibition (IC50) was determined as 600 pM.

On to `COC(=O)NCCCc1nc([C@@H](C)N(C(=O)[C@H]2CNCCO2)C2CC2)sc1-c1cccc(Cl)c1` [Example 377], for which, under setting [1], the half-maximal inhibitory concentration (IC50) turned out to be 2400 pM.

For the compound `COC(=O)NCCCc1cc([C@@H](C)N(C(=O)[C@H]2CNC[C@@H](C)O2)C2CC2)nn1-c1cccc(F)c1` [Example 359], under setting [1], the IC50 turned out to be 300 pM. Take `COC(=O)NCCCc1nc([C@H](C)N(C(=O)[C@H]2CNCCO2)C2CC2)sc1-c1ccc(F)cc1` [Example 402]: the IC50 under setting [1] stood at 2300 pM. For `COC(=O)NCCCc1cc([C@@H](C)N(C(=O)[C@H]2CNCCO2)C2CC2)nc2ccc(C#N)cc12` [Example 146], the half-inhibitory concentration (IC50) under setting [1] stood at 1000 pM. As to `COC(=O)NCCCc1cc([C@@H](C)N(C(=O)[C@H]2CNC[C@@H](C(F)(F)F)O2)C2CC2)nn1-c1ccccc1` [Example 367], the concentration for half-maximal inhibition (IC50) under setting [1] was 1700 pM. For the compound `COC(=O)NCCCc1sc(C(C)N(C(=O)[C@H]2CNCCO2)C2CC2)cc1-c1ccnn1C` (some centres unmarked) [Example 429], the IC50 under setting [1] is 2000 pM. Still for that read-out and setting: with `COC(=O)NCCCc1cc([C@@H](C)N(C(=O)[C@H]2CNCCO2)C2CC2)nn1-c1ccccc1C` [Example 222] the figure was 500 pM; with `CCc1nc([C@@H](C)N(C(=O)[C@H]2CN[C@@H](COC)CO2)C2CC2)cc2c1ncn2CCCOC` [Example 393], 3700 pM. In the case of `CCOC(=O)NCCCn1nc([C@@H](C)N(C(=O)[C@H]2CNCCO2)C2CC2)c2ccc(C)nc21` [Example 58], the IC50 (read-out: IC50) was determined as 1600 pM.

For the compound `CC(=O)NCCn1nc(C)c2ccc([C@@H](C)N(C(=O)[C@H]3CNCCO3)C3CC3)cc21` [Example 8], for the setting “read-out: IC50”, the IC50 is 4400 pM. Turning to `COCCCCc1cc([C@@H](C)N(C(=O)[C@H]2CNCCO2)C2CC2)nc2c1CCCC2` [Example 123], the half-maximal inhibitory concentration (IC50) under setting [1] is 800 pM.

As for `COC(=O)NCCCn1cc([C@@H](C)N(C(=O)[C@H]2CNCCO2)C2CC2)nc1-c1ccccc1Cl` [Example 169], the half-maximal inhibitory concentration (IC50) under setting [1] was 300 pM.

With `COC(=O)NCCCc1cc([C@H](C)N(C(=O)[C@H]2CNC[C@@H](CO)O2)C2CC2)cc(OC)n1` [Example 308], the IC50 under setting [1] stood at 500 pM.

As for `C=C(c1sc([C@@H](C)N(C(=O)[C@H]2CNCCO2)C2CC2)cc1CCCNC(=O)OC)C(F)(F)F` [Example 401], the IC50 under setting [1] amounted to 2700 pM.

Regarding `COC(=O)NCCCc1cc(C(C)N(C(=O)[C@H]2CNCCO2)C2CC2)sc1C(C)CO` (some centres unmarked) [Example 420], under setting [1], the half-inhibitory concentration (IC50) worked out at 2700 pM. The same measure, in the same setting: then `COC(=O)NCCCc1sc([C@@H](C)N(C(=O)[C@H]2CNCCO2)C2CC2)cc1-c1cnc(N)nc1` [Example 432], with 3300 pM; and `COC(=O)NCCCc1cc([C@@H](C)N(C(=O)[C@H]2CNC[C@@H](C)O2)C2CC2)nn1-c1ccccc1C` [Example 345], with 400 pM; and `COC(=O)NCCCn1nc([C@@H](C)N(C(=O)[C@H]2CNCCO2)C2CC2)c2c1CCC2` [Example 190], with 1200 pM. With `COC(=O)NCCCn1nc([C@@H](C)N(C(=O)[C@H]2CN[C@@H](COCC(F)(F)F)CO2)C2CC2)c2ccc(C)nc21` [Example 278], the 50% inhibitory concentration (IC50) under setting [1] came out at 1200 pM. Regarding `COC(=O)NCCn1nc(C)c2ccc([C@@H](C)N(C(=O)[C@H]3CNCCO3)C3CC3)cc21` [Example 9], for the setting “read-out: IC50”, the half-maximal inhibitory concentration (IC50) stood at 7300 pM.

Take `COC(=O)NCCCc1cc([C@H](C)N(C(=O)[C@H]2CNC[C@@H](CF)O2)C2CC2)nn1C1CCOCC1` [Example 340]: under setting [1], the IC50 was determined as 700 pM. In the case of `COC(=O)NCCCc1cc([C@H](C)N(C(=O)[C@H]2CNCCO2)C2CC2)cnc1C1CCOCC1` [Example 317], under setting [1], the IC50 turned out to be 600 pM.

For `CCc1cc([C@@H](C)N(C(=O)[C@H]2CNCCO2)C2CC2)nc2ccccc12` [Example 212], under setting [1], the IC50 stood at 4600 pM. Consider `COC[C@H]1CO[C@@H](C(=O)N(C2CC2)[C@H](C)c2cn(CCCNC(=O)OC)c(C3CCCCC3)n2)CN1` [Example 289], for which the IC50 under setting [1] is 500 pM.

For the compound `COC[C@@H]1CNC[C@H](C(=O)N(C2CC2)[C@H](C)c2cc(CCCNC(=O)OC)nc(OC)c2)O1` [Example 2, methyl (3-{4-[(1R)-1-(cyclopropyl{[(2R,6S)-6-(methoxymethyl)morpholin-2-yl]carbonyl}amino)ethyl]-6-methoxypyridin-2-yl}propyl)carbamate], the concentration for half-maximal inhibition (IC50) (read-out: IC50) was determined as 300 pM. With `COCCCc1cn(C)c2cnc([C@@H](C)N(C(=O)[C@H]3CNCCO3)C3CC3)cc12` [Example 125], the half-maximal inhibitory concentration (IC50) under setting [1] came to 1300 pM. In the case of `COC(=O)NCCCc1cc([C@@H](C)N(C(=O)[C@H]2CNCCO2)C2CC2)nc2ccoc12` [Example 167], the IC50 under setting [1] is 4100 pM. Turning to `COC(=O)NCC(F)Cn1nc([C@@H](C)N(C(=O)[C@H]2CNCCO2)C2CC2)cc1-c1ccccc1` (some centres unmarked) [Example 193], the IC50 under setting [1] was determined as 400 pM.

As to `COC(=O)NCCCc1nc([C@@H](C)N(C(=O)[C@H]2CNCCO2)C2CC2)cn1-c1ccccc1` [Example 182], the concentration for half-maximal inhibition (IC50) under setting [1] amounted to 700 pM. Regarding `CCc1cc([C@H](C)N(C(=O)[C@H]2CNC[C@@H](COC)O2)C2CC2)cc(CCCNC(=O)OC)n1` [Example 329], under setting [1], the half-maximal inhibitory concentration (IC50) was 800 pM. Take `COC(=O)NCCCn1cc([C@@H](C)N(C(=O)[C@H]2CNCCO2)C2CC2)nc1-c1ccc(C(F)(F)F)cc1` [Example 164]: under setting [1], the IC50 was found to be 600 pM. Still for that read-out and setting: then `COC[C@H]1CO[C@@H](C(=O)N(C2CC2)[C@@H](C)c2nn(CCCNC(=O)OC)c(C3CCOCC3)c2C)CN1` [Example 327], with 2900 pM.

(Values after US9556159B2, “Renin inhibitor” (MITSUBISHI TANABE PHARMA CORPORATION, priority 2012, dated 2017).)
